# Assay results reported in patent publication US12540922B2, “Quantitative shotgun proteome, lipidome, and metabolome analysis by direct infusion” (Wisconsin Alumni Research Foundation, priority 2021, dated 2026).
# Test system: 293T cells (wild type or PPTC7 knockout)
# Assay: MitoTox screen: DI-SPA proteome quantification of toxin-treated cells
# Type: cell-based, human
# Conditions: 6-hour compound treatments, DMEM or HPLM
# Procedure: Wild type or PPTC7 knockout (KO) cells were grown in either standard or modified media, DMEM or HPLM (Cantor et al., Cell, 169, 258-272.e17 (2017)), respectively, and treated in triplicate with one of nine mitochondrial toxins or two controls for a total 132 samples. These conditions were chosen because of their known effects on metabolism and mitochondria, which were hypothesized to induce changes in proteins and thus provide a suitable testbed for DI-SPA. Again, a peptide discovery experiment (like FIG. 7) was first performed to identify peptides for subsequent targeted quantification experiments, in which 1,384 peptides were identified (peptide-level FDR=0.93%) from 451 proteins (protein-level FDR=2.8%). Next, a quantitative targeted DI-SPA assay was generated to expeditiously monitor the most intense peptide from each of the 451 proteins. This method was used to analyze all 132 samples, generating 132 proteotypes and requiring only 120 seconds of MS data collection per sample. A total of 341 out of 451 protein targets were quantified across all 132 samples in only 4.4 hours of total MS data acquisition, which corresponds to over 45,000 proteins quantified at a rate of nearly three proteins per second (FIG. 4, panel B).
# MitoTox Experiment—Cell Culture. 293T cells were purchased from ATCC (#CRL-3216) and maintained in DMEM (4.5 g/L glucose, 4 mM glutamine, no pyruvate—Thermo #11965092) supplemented with 10% fetal bovine serum (FBS) and 1× penicillin/streptomycin (100 U/mL final [c]). Human Plasma-Like Medium (HPLM) was supplemented with 10% dialyzed FBS (Thermo #26400036) and 1× penicillin/streptomycin (100 U/mL final [c]). For heavy labeling, 293T cells were labeled using the DMEM-based SILAC protein quantitation kit (Thermo #A33972). Briefly, cells were grown for at least 5 passages SILAC-compatible DMEM supplemented with 10% dialyzed FBS, ^13C ^15N2 L-lysine-2HCl and ^13C6 ^15N4 L-arginine HCl, and 1× penicillin/streptomycin. SILAC labeling was confirmed through mass spectrometry analysis and ratios of light/heavy cells were titrated based on analysis of median ratios observed in the controls. All cells were grown in a tissue culture grade incubator held at 37° C. supplemented with 5% CO2. Cells were verified as mycoplasma negative via the e-Myco Mycoplasma PCR Detection Kit (Bulldog Bio #25233).
# MitoTox screen conditions. 293T or PPTC7 knockout 293T cells were split and plated in 24 well plates at 7.5×10^4 cells per well. Cells were allowed to adhere overnight, and media was replaced with fresh DMEM or HPLM for a total of 24 hours prior to collection of cells. Compound treatments were grouped into 6-hour or 24-hour incubations, with 6-hour compound treatments occurring in the last 6 hours of the 24-hour media change, and 24-hour compound treatments occurring for the entire 24 hours of media treatment. Compounds used for 6 hours include antimycin A (5 μM final [c], Sigma #A8674), rotenone (5 μM final [c], Sigma #R8875), oligomycin (2.5 μM final [c], Sigma #04876), CCCP (10 μM final [c], Sigma #C2759), valinomycin (1 μM final [c], Sigma #V0627) and CDDO (2.5 μM final [c], Cayman Chemical #11883)). Compounds used for 24 hours include doxycycline (10 μg/ml final [c], VWR #75844-668) and Deferoxamine (DFO, 100 μM final [c], Sigma #D9533). One compound, 4-nitrobenzoate (4-NB, 1 mM final [c], Sigma #461091), requires 6+ days for efficacy (Forsman et al., Nature Chemical Biology, 6, 515-517 (2010)), and thus cells were treated with this compound for 5 days before being split to 7.5×10^4 cells per well and grouped with the 24 hour incubations. Control, untreated 293T cells were split and harvested with both the 6-hour and 24-hour compound treatment sets. All conditions were plated and collected in 3 replicate wells. […]
row,Molecule,proteome perturbation (UMAP of proteotypes) in relation to 6 h controls
1,"CC(C)[C@@H]1NC(=O)[C@H](C)OC(=O)[C@@H](C(C)C)NC(=O)[C@@H](C(C)C)OC(=O)[C@H](C(C)C)NC(=O)[C@H](C)OC(=O)[C@@H](C(C)C)NC(=O)[C@@H](C(C)C)OC(=O)[C@H](C(C)C)NC(=O)[C@H](C)OC(=O)[C@@H](C(C)C)NC(=O)[C@@H](C(C)C)OC1=O [Valinomycin, valinomycin]",induced the most profound proteome perturbation relative to controls
2,CC1(C)CC[C@]2(C(=O)O)CC[C@]3(C)[C@H](C(=O)C=C4[C@@]5(C)C=C(C#N)C(=O)C(C)(C)[C@@H]5CC[C@]43C)[C@@H]2C1 [CDDO],media dependent
3,CC[C@H]1/C=C/C=C/C[C@@H](C)[C@H](O)[C@@](C)(O)C(=O)[C@@H](C)[C@H](O)[C@@H](C)C(=O)[C@@H](C)[C@H](O)[C@@H](C)/C=C/C(=O)O[C@@H]2[C@H](C)[C@H](CC1)O[C@]1(CC[C@H](C)[C@H](C[C@@H](C)O)O1)[C@H]2C [oligomycin],produced more (and comparable) proteome rearrangement
4,antimycin A,most similar
5,N#CC(C#N)=NNc1cccc(Cl)c1 [CCCP],produced more (and comparable) proteome rearrangement
6,C=C(C)[C@H]1Cc2c(ccc3c2O[C@@H]2COc4cc(OC)c(OC)cc4[C@@H]2C3=O)O1 [rotenone],most similar
